Reference: patent publication US8343951B2, “Volatile sulfide production inhibitor and method for inhibiting the production of volatile sulfide using the inhibitor” (Kabushiki Kaisha Hayashibara Seibutsu Kagaku Kenkyujo, priority 2006, dated 2013)

Columns and labels:
[1] = Hydrogen sulfide production from heated mackerel meat homogenate (headspace detecting tube); details: for Produced Volatile sulfide: hydrogen sulfide in headspace; for Inhibiting rate of volatile sulfide production: hydrogen sulfide, relative to control
Experimental: AA-2G (reagent grade, commercialized by Hayashibara Biochemical Laboratories, Inc.) was dissolved in distilled water to give a solution of a concentration of 10%. A certain amount of the solution and 5 ml of 500 mM phosphate buffer (pH 7.0) were put into measuring flask and filled up to 50 ml to give the test solutions containing AA-2G at the twofold concentration described in Table 1. Also the test solutions containing ascorbic acid were prepared in the same way except for using ascorbic acid (guaranteed regent) in place of AA-2G. Five ml of 500 mM phosphate buffer (pH 7.0) was filled up to 50 ml with distilled water to give control solution. Edible part of commercial mackerel fillet without bone and skin was chopped with trio blender and homogeneously stirred to make minced mackerel. Forty-five grams of the minced mackerel was put into a beaker and added with 45 g of the test solution or control solution to give the samples at the concentration of AA-2G or ascorbic acid described in Table 1. The samples were treated with homogenizer (produced by IKA Works Inc.) at ice-chilled temperature to give the homogenates as the test samples. PH of the homogenates is from 6.21 to 6.38. Ten grams of the above samples were put into 20 ml-vials and sealed with butyl rubber cap and aluminum seal. They were heated in boiled water bath for 15 minutes and cooled in running cool water. After cooled, they were heated on heating block (80° C.) for 10 minutes and the solidified samples were broken with vortex mixer. The amounts of hydrogen sulfide in the headspace gas were measured by hydrogen sulfide detecting tube ([…] No. 4LT, produced by GL Sciences Inc.). Also the inhibiting rate (%) of hydrogen sulfide production were shown in Table 1, which were obtained by subtracting the percentage amounts of hydrogen sulfide produced from 1 g of mackerel meats added with test solutions relative to the amount of hydrogen sulfide produced from 1 g of mackerel meat added with control solution from 100 to obtain.

[2] = Dimethyl-sulfide and dimethyl-disulfide production from heated milk (headspace gas chromatography); details: for Produced Dimethyl-disulfide / Produced Dimethyl-sulfide: milk heated 130° C. one minute; for production of volatile sulfides (dimethyl-sulfide and dimethyl-disulfide) from the test solutions / Produced Volatile sulfide: milk; for Inhibiting rate of volatile sulfide production: relative to control milk; for Produced Volatile sulfide: sum of dimethyl-sulfide and dimethyl-disulfide
Experimental: AA-2G (reagent grade, commercialized by Hayashibara Biochemical Laboratories, Inc.) was added in commercial milk to give the concentrations described in Table 2 to make the test solutions. Test solutions containing ascorbic acid were prepared in the same way except for using ascorbic acid (guaranteed regent) in place of AA-2G. The commercial milk was used plain as control. Sensory test of the solutions was performed by 11 panelists to evaluate the taste of each test solution added with AA-2G or ascorbic acid as being different (D) from control or as being the same (S) as control. As a result, eight or more of the 11 panelists gave a same evaluation to each test solution.
One ml of the above samples were put into 20 ml-vials and sealed with butyl rubber cap and aluminum seal. After heated at 130° C. for one minute, the amounts of dimethyl-sulfide and dimethyl-disulfide in the headspace were measured by gas chromatography in conventional way. The sums of them were shown as the amounts of volatile sulfide in Table 2. Also the inhibiting rates (%) of volatile sulfide production were shown in Table 2, which were obtained by subtracting the percentage amounts of volatile sulfide produced from ml of the test solutions relative to the amount of volatile sulfide produced from 1 ml of control (milk) from 100 to obtain.

## O=C1O[C@H]([C@@H](O)CO)C(O)=C1O[C@H]1O[C@H](CO)[C@@H](O)[C@H](O)[C@H]1O [AA-2G, α-D-glucopyronosyl-(1→2)-L-ascorbic acid]
[1]; AA-2G concentration of 0.1%
  hydrogen sulfide production from homogenate of mackerel meat: enhanced
[1]; concentration in a range from 0.0005 to 0.5%, versus control
  hydrogen sulfide production from homogenate of mackerel meat: inhibited
[1]; additive 0.0001% in sample
  Produced Volatile sulfide: 44.5 μg/g-mackerel
  Inhibiting rate of volatile sulfide production: −3.0%
[1]; additive 0.0005% in sample
  Produced Volatile sulfide: 30.7 μg/g-mackerel
  Inhibiting rate of volatile sulfide production: 28.9%
[1]; additive 0.001% in sample
  Produced Volatile sulfide: 17.4 μg/g-mackerel
  Inhibiting rate of volatile sulfide production: 59.7%
[1]; additive 0.005% in sample
  Produced Volatile sulfide: 11.5 μg/g-mackerel
  Inhibiting rate of volatile sulfide production: 73.4%
[1]; additive 0.01% in sample
  Produced Volatile sulfide: 13.2 μg/g-mackerel
  Inhibiting rate of volatile sulfide production: 69.4%
[1]; additive 0.025% in sample
  Produced Volatile sulfide: 16.1 μg/g-mackerel
  Inhibiting rate of volatile sulfide production: 62.7%
[1]; additive 0.05% in sample
  Produced Volatile sulfide: 19.9 μg/g-mackerel
  Inhibiting rate of volatile sulfide production: 53.9%
[1]; additive 0.1% in sample
  Produced Volatile sulfide: 25.9 μg/g-mackerel
  Inhibiting rate of volatile sulfide production: 40.0%
[1]; additive 0.5% in sample
  Produced Volatile sulfide: 38.2 μg/g-mackerel
  Inhibiting rate of volatile sulfide production: 11.6%
[1]; additive 1.0% in sample
  Produced Volatile sulfide: 48.5 μg/g-mackerel
  Inhibiting rate of volatile sulfide production: −12.3%
[2]; additive 0.0001% in sample
  Produced Dimethyl-disulfide: 0.54 μg/ml-milk
  Produced Dimethyl-sulfide: 1.30 μg/ml-milk
  Inhibiting rate of volatile sulfide production: 2.6%
  Produced Volatile sulfide: 1.94 µg/mL
[2]; additive 0.0005% in sample
  Produced Dimethyl-disulfide: 0.43 μg/ml-milk
  Produced Dimethyl-sulfide: 1.12 μg/ml-milk
  Inhibiting rate of volatile sulfide production: 18.0%
  Produced Volatile sulfide: 1.55 µg/mL
[2]; additive 0.001% in sample
  Produced Dimethyl-disulfide: 0.37 μg/ml-milk
  Produced Dimethyl-sulfide: 0.75 μg/ml-milk
  Inhibiting rate of volatile sulfide production: 40.7%
  Produced Volatile sulfide: 1.12 µg/mL
[2]; additive 0.005% in sample
  Produced Dimethyl-disulfide: 0.14 μg/ml-milk
  Produced Dimethyl-sulfide: 0.23 μg/ml-milk
  Inhibiting rate of volatile sulfide production: 80.4%
  Produced Volatile sulfide: 0.37 µg/mL
[2]; additive 0.01% in sample
  Produced Dimethyl-disulfide: 0.14 μg/ml-milk
  Produced Dimethyl-sulfide: 0.11 μg/ml-milk
  Inhibiting rate of volatile sulfide production: 86.8%
  Produced Volatile sulfide: 0.25 µg/mL
[2]; additive 0.05% in sample
  Produced Dimethyl-disulfide: 0.07 μg/ml-milk
  Produced Dimethyl-sulfide: 0.07 μg/ml-milk
  Inhibiting rate of volatile sulfide production: 92.6%
  Produced Volatile sulfide: 0.14 µg/mL
[2]; additive 0.1% in sample
  Produced Dimethyl-disulfide: 0.07 μg/ml-milk
  Produced Dimethyl-sulfide: 0.06 μg/ml-milk
  Inhibiting rate of volatile sulfide production: 93.1%
  Produced Volatile sulfide: 0.13 µg/mL
[2]; additive 0.5% in sample
  Produced Dimethyl-disulfide: 0.08 μg/ml-milk
  Produced Dimethyl-sulfide: 0.10 μg/ml-milk
  Inhibiting rate of volatile sulfide production: 90.5%
  Produced Volatile sulfide: 0.18 µg/mL
[2]; additive 2.5% in sample
  Produced Dimethyl-disulfide: 0.19 μg/ml-milk
  Produced Dimethyl-sulfide: 0.28 μg/ml-milk
  Inhibiting rate of volatile sulfide production: 75.1%
  Produced Volatile sulfide: 0.47 µg/mL
[2]; concentration from 0.005 to 0.5%
  production of volatile sulfides (dimethyl-sulfide and dimethyl-disulfide) from the test solutions: strongly inhibited
[2]; concentration of 0.0005% or more, compared to control
  production of volatile sulfides (dimethyl-sulfide and dimethyl-disulfide) from the test solutions: inhibited
